This is an account of results in paper PMC7359744 (ACS chemical neuroscience, 2020).

The subject of assay [1] is human μ-opioid receptor β-arrestin-2. It is filed as cell-based.
The subject of another assay is male C57 BL/6 mice. Description: animal or person. The assay is classed as in vivo.
For assay [2], the target named is human κ-opioid receptor (OPRK1) (Homo sapiens, UniProt P41145). The assay is classed as cell-based. As to conditions: read-out: KOR EC50 ± SEM.

By ED50 is commonly meant the midpoint of the dose-response relation. A word on the EC50: it is the concentration giving half of the maximal effect.

Chain of human κ-opioid receptor (OPRK1) (P41145 whole entry): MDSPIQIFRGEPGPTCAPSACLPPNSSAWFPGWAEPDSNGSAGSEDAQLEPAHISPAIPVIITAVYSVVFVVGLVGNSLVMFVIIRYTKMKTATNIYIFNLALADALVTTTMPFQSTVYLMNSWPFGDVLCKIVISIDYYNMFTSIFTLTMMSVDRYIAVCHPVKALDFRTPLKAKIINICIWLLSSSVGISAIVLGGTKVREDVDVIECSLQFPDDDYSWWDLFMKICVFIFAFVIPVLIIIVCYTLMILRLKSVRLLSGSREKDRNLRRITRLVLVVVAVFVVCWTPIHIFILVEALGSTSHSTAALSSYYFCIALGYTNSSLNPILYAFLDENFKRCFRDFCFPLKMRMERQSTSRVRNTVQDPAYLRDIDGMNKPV

`C[C@@H](NC(=O)[C@@H](N)Cc1ccc(O)cc1)C(=O)NCC(=O)N(C)[C@@H](Cc1ccccc1)C(=O)NCCO` [DAMGO]: in assay [1], the “Bias Factor” value is 1 and the “β-arrestin recruitment % Efficacy” value was 42 ± 5 (97) %.

Regarding `CN1CC[C@]23c4c5ccc(O)c4O[C@H]2[C@@H](O)C=C[C@H]3[C@H]1C5` [Morphine], the ED50 with male C57 BL/6 mice (Mus musculus, 24 h, read-out: antinociceptive ED50, day 1) was found to be 6.43 ± 0.27 mg/kg. In the assay with male C57 BL/6 mice (mouse, in vivo, sc), the “antinociceptive tolerance on day 9 compared to day 1” value was “significant induction of tolerance” and the onset of tolerance was determined as 5 days.

Regarding `COC(=O)[C@@H]1C=C(OC(=O)c2ccccc2)C(=O)[C@H]2[C@@]1(C)CC[C@H]1C(=O)O[C@H](c3ccoc3)C[C@]21C` [Compound 1, kurkinorin], the EC50 in assay [2] was greater than 10 µM. Besides, in the assay on male C57 BL/6 mice (mouse, in vivo), the “antinociceptive ED50, day 1” value is 5 ± 0.51 mg/kg and the “antinociceptive ED50, day 9” value is recorded as 7.9 ± 0.11 mg/kg. Moreover, in the assay with male C57 BL/6 mice (mouse, in vivo, sc), the “antinociceptive tolerance on day 9 compared to day 1” value is “reduced tolerance compared to morphine”.
